Laboratory results published in ChEMBL document CHEMBL1144345, “Discovery of cell-permeable non-peptide inhibitors of beta-secretase by high-throughput docking and continuum electrostatics calculations” (J Med Chem, 2005).

Legend:
[1] = Cytotoxic concentration against human and other tumor cell lines; format: functional
[2] = Effective concentration against Abeta(sw) peptide; format: functional
[3] = target: Beta-secretase (BACE) (Homo sapiens, UniProt Q9Y5Z0+P56817); test: Beta-secretase inhibitory activity as inhibition of secreted alkaline phosphatase in HEK293 cells expressing SEAP-APP fusion protein; format: functional, cell-based

| EC50 [2] [nM] | EC50 [3] [µM] | Structure (SMILES) | CC50 [1] [µM] |
| --- | --- | --- | --- |
| 2600 |  | CCSc1nsc(NC(=O)Nc2cccc(C(C)=O)c2)n1 | 23.3 |
| 2600 |  | CCOCCCNC(=O)c1cc(NC(=O)Nc2cccc(Cl)c2)ccc1N(C)C | 11.1 |
| 3200 | 27 | COCCCNC(=O)c1cc(NC(=O)Nc2cc(C(F)(F)F)cc(C(F)(F)F)c2)ccc1N(C)C | 24.6 |
| 3000 |  | CN(C)c1ccc(NC(=O)Nc2cc(C(F)(F)F)cc(C(F)(F)F)c2)cc1C(=O)NCCCN1CCOCC1 | 12.5 |
